“Also recorded” adds a separate entry of the source.
Tests used:
A. nidulans = assay: Germination assay with purified imizoquins, A. nidulans; format: cell-based, Aspergillus nidulans
Description: (§1) Germination Assay: Each strain was grown in triplicate in 2 mL of liquid GMM inoculated with 1×10^5 spores mL^−1 in a well of a sterile Costar® 12-well plate (Corning) and incubated at 30° C. in OKO-Lab microscopic enclosure equipped with a Nikon Eclipse Ti inverted microscope. Germinated spores were observed using a Nikon Plan Fluor 20xPh1 DLL objective and phase-contrast microscope. A spore was considered germinated when the length of the spore protrusion (emerging hyphal tip) exceeded the spore's diameter^15,33. Images were captured hourly using the Nikon NIS Elements AR software package (v. 4.13), and the germination rate was determined by counting germlings per hundred spores. The experiment was repeated three times.
(§2) Germination Assay with Purified Imizoquins. Compounds 1-2 were assessed for their effect on germination of different fungal strains. Each metabolite was dissolved in methanol at a starting concentration of 10 mg mL^−1 and stored at −80° C. Sterile Costar® 96 well plates containing 100 μL of GMM supplemented with various concentrations of purified 1-2 (0.1 mM, 0.2 mM, 0.4 mM, 0.8 mM and 1.2 mM) were inoculated at 1×10^5 spores/well. Spores treated with equivalent volumes of the carrier (methanol) served as negative controls for each experiment. The germination rate (%) was measured as above with each treatment assayed in triplicate.

A. oryzae = assay: Germination assay with purified imizoquins, A. oryzae; format: cell-based, Aspergillus oryzae
Description: as §1, §2

A. flavus [1] = format: cell-based, Aspergillus flavus; conditions: for germination rate: 0.1 mM, 0.2 mM, 0.4 mM
[2] = Antioxidant Assay (OxiSelect Total Antioxidant Capacity Assay Kit); format: biochemical; conditions: 0-1 mM; compared to uric acid; absorbance 490 nm (Supporting Figure S9)
Description: Antioxidant Assay: ROS quenching potential of the imizoquins was analyzed using the OxiSelect™ Total Antioxidant Capacity Assay Kit (Cell Biolabs, Inc., San Diego, Calif.) following the manufacturer's instructions. Briefly, 20 μL of diluted uric acid standards (0-1 mM) and imizoquins (0-1 mM) were combined with 180 μL of 1× reaction buffer/well in a Costar® 96 well plate. After mixing thoroughly, an initial absorbance was obtained at 490 nm using a BioTek EPOCH 2 microplate reader with Gen5 acquisition software. Then 50 μL of the 1× copper ion reagent was added into each well and the plate was incubated for 5 minutes on an orbital shaker. To terminate the reaction, 50 μL of 1× stop solution was added and the final absorbance was measured again at 490 nm.

A. fumigatus = assay: Germination assay with purified imizoquins, A. fumigatus; format: cell-based, Aspergillus fumigatus
Description: as §1, §2

A. flavus [3] = assay: Germination ROS assay (H2O2 plus imizoquin A); format: cell-based, Aspergillus flavus; conditions: 0.7 mM H2O2, 0.1, 0.2, 0.4 mM compound
R. solanacearum = format: cell-based, Ralstonia solanacearum; conditions: WT (GMI1000) strain; 0.4 mM; 24 hours
Penicillium expansum = assay: Germination assay with purified imizoquins, Penicillium expansum; format: cell-based
Description: as §1, §2

SMILES: OO [H2O2, hydrogen peroxide]
- spore survival (A. flavus spores): 50%

SMILES: COC1=C(O)C(=O)C2=C(C1=O)[C@H]1N[C@@H](Cc3c[nH]c4ccccc34)C(=O)N1C(C(=O)N[C@@H](CC(C)CO)C(=O)O)C2 (stereo partly shown) [Imizoquin A, imizoquin A]
- germination rate (A. nidulans): increases the germination rate
- concentration up to which the germination effect is dose-dependent (A. nidulans; A. nidulans): about 0.4 mM
- concentration up to which the germination effect is dose-dependent (A. oryzae; A. oryzae): about 0.4 mM
- germination rate (A. oryzae; A. oryzae (Supporting Figure S8)): increases the germination rate
- germination rate (A. flavus [1]): restores germination in the ΔimqK mutant in a dose-dependent manner; also recorded: increased germination of both ΔimqK and WT to above that of untreated OE::imqK
- antioxidant activity (ROS quenching potential) [2]: significant antioxidant activities
- germination rate (A. fumigatus): increases the germination rate
- concentration up to which the germination effect is dose-dependent (A. fumigatus; A. fumigatus): about 0.4 mM
- germination rate in the presence of H2O2 (A. flavus [3]; WT strain): counteracted the germination inhibitory activity of H2O2
- germination rate in the presence of H2O2 (A. flavus [3]; WT strain, listed as imizoquin A): protected spores from the germination inhibitory effects of H2O2
- germination rate in the presence of H2O2 (A. flavus [3]; ΔimqK strain): counteracted the germination inhibitory activity of H2O2
- germination rate in the presence of H2O2 (A. flavus [3]; ΔimqK strain, listed as imizoquin A): protected spores from the germination inhibitory effects of H2O2
- R. solanacearum growth (OD) (R. solanacearum): decreases R. solanacearum growth modestly
- concentration up to which the germination effect is dose-dependent (Penicillium expansum): about 0.4 mM
- germination rate (Penicillium expansum): increased the germination rate

SMILES: COC1=C(O)C(=O)C2=C(C1=O)[C@H]1N[C@@H](Cc3c[nH]c4ccccc34)C(=O)N1C(C(=O)N[C@@H](CC(CO)CO)C(=O)O)C2 (stereo partly shown) [Imizoquin B, imizoquin B]
- germination rate (A. flavus [1]): restores germination in the ΔimqK mutant in a dose-dependent manner; also recorded: increased germination of both ΔimqK and WT to above that of untreated OE::imqK
- antioxidant activity (ROS quenching potential) [2]: significant antioxidant activities
- germination rate in the presence of H2O2 (A. flavus [3]; WT strain): protected spores from the germination inhibitory effects of H2O2
- germination rate in the presence of H2O2 (A. flavus [3]; ΔimqK strain): protected spores from the germination inhibitory effects of H2O2
- R. solanacearum growth (OD) (R. solanacearum): decreases R. solanacearum growth modestly

SMILES: COc1c(O)cc2c(c1O)CN(C(=O)[C@@H](N)Cc1c[nH]c3ccccc13)[C@H](C(=O)N[C@@H](CC(CO)CO)C(=O)O)C2 [TMC-2A, reference compound]
- germination (A. flavus [1]): similarly accelerated germination
- antioxidant activity (ROS quenching potential) [2]: showed antioxidant properties

SMILES: COc1c(O)cc2c(c1O)CN(C(=O)[C@@H](N)Cc1c[nH]c3ccccc13)[C@H](C(=O)N[C@@H](CC(C)CO)C(=O)O)C2 (stereo partly shown) [TMC-2B, reference compound]
- germination (A. flavus [1]): similarly accelerated germination
- antioxidant activity (ROS quenching potential) [2]: showed antioxidant properties

Reference: US11649430B2 (priority 2018, dated 2023)
